Experimental data reported in patent US11161846B2, “Substituted pyrazolo[4,3-b]pyridines and their use as GluN2B receptor modulators” (JANSSEN PHARMACEUTICA NV, priority 2019, dated 2021).

molecular target: T1, human GluN1/GluN2B NMDA receptors (Homo sapiens, UniProt Q05586+Q13224); assay: Calcium flux (FLIPR) assay on cloned human NR1/GluN2B ion channels expressed in mammalian cells, standard assay; assay type: cell-based; conditions: glutamate ~EC40 and 10 μM glycine, stable cell line with Tet-On induced expression
T1 construct: expressed in transfected cells
T1 sequence (Q13224 27-1484, other chains not shown): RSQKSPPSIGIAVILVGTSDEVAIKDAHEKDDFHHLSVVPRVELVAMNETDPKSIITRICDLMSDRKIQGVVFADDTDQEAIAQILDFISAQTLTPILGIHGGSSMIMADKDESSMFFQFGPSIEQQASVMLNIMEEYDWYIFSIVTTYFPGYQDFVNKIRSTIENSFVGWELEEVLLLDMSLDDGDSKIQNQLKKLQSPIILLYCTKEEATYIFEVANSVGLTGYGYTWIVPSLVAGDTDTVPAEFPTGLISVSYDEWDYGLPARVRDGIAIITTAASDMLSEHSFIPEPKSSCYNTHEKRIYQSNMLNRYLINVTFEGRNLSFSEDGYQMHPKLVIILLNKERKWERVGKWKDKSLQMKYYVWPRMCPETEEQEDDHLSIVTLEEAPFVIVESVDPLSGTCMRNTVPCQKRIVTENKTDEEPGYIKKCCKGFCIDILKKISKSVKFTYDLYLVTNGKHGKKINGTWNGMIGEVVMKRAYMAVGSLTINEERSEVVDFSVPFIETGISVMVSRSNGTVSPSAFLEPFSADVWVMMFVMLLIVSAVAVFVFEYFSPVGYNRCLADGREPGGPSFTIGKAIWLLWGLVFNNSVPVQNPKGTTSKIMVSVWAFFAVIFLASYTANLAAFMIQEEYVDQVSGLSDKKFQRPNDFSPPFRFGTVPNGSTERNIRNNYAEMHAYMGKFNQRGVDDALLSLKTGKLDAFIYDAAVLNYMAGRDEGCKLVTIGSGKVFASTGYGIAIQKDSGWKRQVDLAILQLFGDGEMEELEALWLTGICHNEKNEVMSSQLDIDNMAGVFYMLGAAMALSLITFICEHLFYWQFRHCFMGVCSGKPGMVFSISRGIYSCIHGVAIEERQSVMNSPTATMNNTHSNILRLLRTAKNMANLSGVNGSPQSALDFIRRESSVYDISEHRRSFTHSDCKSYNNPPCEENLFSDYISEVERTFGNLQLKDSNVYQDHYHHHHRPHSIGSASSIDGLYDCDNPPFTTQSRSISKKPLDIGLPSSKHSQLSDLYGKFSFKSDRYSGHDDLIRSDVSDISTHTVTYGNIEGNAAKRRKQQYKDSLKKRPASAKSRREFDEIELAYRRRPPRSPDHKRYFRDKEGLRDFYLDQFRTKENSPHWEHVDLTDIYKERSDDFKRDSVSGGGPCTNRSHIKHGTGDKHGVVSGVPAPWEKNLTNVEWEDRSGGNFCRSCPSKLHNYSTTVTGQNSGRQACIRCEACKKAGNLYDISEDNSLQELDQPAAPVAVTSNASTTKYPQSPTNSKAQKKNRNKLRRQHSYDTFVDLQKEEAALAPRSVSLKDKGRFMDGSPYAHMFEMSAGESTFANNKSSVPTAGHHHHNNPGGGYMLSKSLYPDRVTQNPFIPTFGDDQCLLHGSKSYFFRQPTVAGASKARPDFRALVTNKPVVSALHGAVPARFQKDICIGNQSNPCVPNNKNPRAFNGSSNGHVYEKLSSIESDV
Method: Effects of Test Articles on Cloned Human NR1/GluN2B Ion Channels Expressed in Mammalian Cells
NMDA receptors are ion channels that are highly permeable to Ca^2+ ions, rendering it possible to monitor NMDA receptor function using cell-based calcium flux assay. In this assay, co-agonists glutamate and glycine are added to cells heterologously expressing human GluN1/GluN2B NMDA receptors to initiate cellular Ca^2+ influx. The time course of the changes in intracellular calcium is measured using a fluorescent dye and a FLIPR (Fluorometric Imaging Plate Reader) device.
Twenty four hours before measurements, the expression of the NMDA receptors in the stable cell line is induced with Tet-On inducible system in the presence of a non-selective NMDA receptor blocker. On the day of the experiment, cell culture media is carefully washed and the cells are loaded with Calcium 5 Dye Kit (Molecular Devices) in dye loading buffer containing 137 mM NaCl, 4 mM KCl, 2 mM CaCl2, 0.5 mM MgCl2 (standard assay) or 1.5 mM MgCl2 (HTS assay), 10 mM HEPES and 5 mM D-glucose; pH 7.4. After 1 h incubation at the room temperature, the dye is washed away with the assay buffer (137 mM NaCl (standard assay) or 150 mM (HTS assay), 4 mM KCl (standard assay) or 3 mM (HTS assay), 2 mM CaC2, 0.01 mM EDTA, 10 mM HEPES and 5 mM D-glucose; pH 7.4) In the FLIPR TETRA reader, various concentrations of the test compounds are added to the cells for 5 min while fluorescence is monitored to detect potential agonist activity. Next, co-agonists, glutamate and glycine are added for another 5 minutes. The concentration of glutamate corresponding to ˜EC40 (standard assay) or EC40 (HTS assay) is used to maximize the assay's signal window and ability to detect NMDA receptor antagonists and negative allosteric modulators. A saturating concentration (10 μM) of glycine is also present in the assay. A non-selective NMDA receptor antagonist, (+)MK-801 is used as a positive control for antagonist activity. The fluorescent signal in the presence of test compounds is quantified and normalized to the signal defined by the appropriate control wells.

SMILES	IC50 [nM]
CCC(=O)Cn1ncc2ncc(-c3ccc(Cl)s3)cc21 [Example 27, 1-[6-(5-Chloro-2-thienyl)pyrazolo[4,3-b]pyridin-1-yl]butan-2-one]	13
O=C(Cn1ncc2ncc(-c3ccc(F)c(C(F)F)c3)cc21)c1ccncc1 [Example 139, 2-[6-[3-(Difluoromethyl)-4-fluoro-phenyl]pyrazolo[4,3-b]pyridin-1-yl]-1-(4-pyridyl)ethanone]	118
Cc1cc(F)ccc1-c1cnc2cnn(CC(=O)C3CC3)c2c1 [Example 72, 1-Cyclopropyl-2-[6-(4-fluoro-2-methyl-phenyl)pyrazolo[4,3-b]pyridin-1-yl]ethanone]	199
O=C(Cn1ncc2ncc(-c3ccc(F)c(C(F)F)c3)cc21)C1CC1 [Example 76, 1-Cyclopropyl-2-[6-[3-(difluoromethyl)-4-fluoro-phenyl]pyrazolo[4,3-b]pyridin-1-yl]ethanone]	18
CCC(=O)Cn1ncc2ncc(-c3cc(F)cc(F)c3)cc21 [Example 1, 1-[6-(3,5-Difluorophenyl)pyrazolo[4,3-b]pyridin-1-yl]butan-2-one]	19
O=C(Cn1ncc2ncc(-c3ccc(F)c(C(F)F)c3)cc21)c1ccccn1 [Example 14, 2-[6-[3-(Difluoromethyl)-4-fluoro-phenyl]pyrazolo[4,3-b]pyridin-1-yl]-1-(2-pyridyl)ethanone]	112
CC[S+]([O-])Cn1ncc2ncc(-c3ccc(F)c(OC(F)F)c3)cc21 (racemic) [Example 12, (RS)-6-[3-(Difluoromethoxy)-4-fluoro-phenyl]-1-(ethylsulfinylmethyl)pyrazolo[4,3-b]pyridine]	146
Cc1cc(-c2cnc3cnn(CC(=O)C(C)C)c3c2)ccc1F [Example 7, 1-[6-(4-Fluoro-3-methyl-phenyl)pyrazolo[4,3-b]pyridin-1-yl]-3-methyl-butan-2-one]	21
CC(C)C(=O)Cn1ncc2ncc(-c3ccc(F)c(F)c3)cc21 [Example 49, 1-[6-(3,4-Difluorophenyl)pyrazolo[4,3-b]pyridin-1-yl]-3-methyl-butan-2-one]	25
O=C(Cn1ncc2ncc(-c3ccc(F)c(C(F)F)c3)cc21)c1cccs1 [Example 137, 2-[6-[3-(Difluoromethyl)-4-fluoro-phenyl]pyrazolo[4,3-b]pyridin-1-yl]-1-(2-thienyl)ethanone]	36
CCC(=O)Cn1ncc2ncc(-c3ccc(F)c(C(C)(F)F)c3)cc21 [Example 37, 1-[6-[3-(1,1-Difluoroethyl)-4-fluoro-phenyl]pyrazolo[4,3-b]pyridin-1-yl]butan-2-one]	41
O=C(Cn1ncc2ncc(-c3ccc(F)c(C(F)F)c3)cc21)c1ccsc1 [Example 138, 2-[6-[3-(Difluoromethyl)-4-fluoro-phenyl]pyrazolo[4,3-b]pyridin-1-yl]-1-(3-thienyl)ethanone]	100
ON=C(Cn1ncc2ncc(-c3ccc(F)c(C(F)F)c3)cc21)C1CC1 (mixture of isomers) [Example 107, (E/Z)-1-Cyclopropyl-2-[6-[3-(difluoromethyl)-4-fluoro-phenyl]pyrazolo[4,3-b]pyridin-1-yl]ethanone oxime]	65
O=C(Cn1ncc2ncc(-c3cccc(F)c3)cc21)C1CC1 [Example 57, 1-Cyclopropyl-2-[6-(3-fluorophenyl)pyrazolo[4,3-b]pyridin-1-yl]ethanone]	26
O=C1NCC(Cn2ncc3ncc(-c4ccc(F)c(C(F)F)c4)cc32)O1 (racemic) [Example 20, (RS)-5-[[6-[3-(Difluoromethyl)-4-fluoro-phenyl]pyrazolo[4,3-b]pyridin-1-yl]methyl]oxazolidin-2-one]	197
FC(F)(F)c1cccc(-c2cnc3cnn(CC4CCO4)c3c2)c1 (racemic) [Example 17, (RS)-1-(Oxetan-2-ylmethyl)-6-[3-(trifluoromethyl)phenyl]pyrazolo[4,3-b]pyridine]	85
CN1CC[C@@H](Cn2ncc3ncc(-c4ccc(F)c(C(F)F)c4)cc32)C1=O [Example 117, (S)-3-[[6-[3-(Difluoromethyl)-4-fluoro-phenyl]pyrazolo[4,3-b]pyridin-1-yl]methyl]-1-methyl-pyrrolidin-2-one]	1210
CC(C)C(O)Cn1ncc2ncc(-c3cc(F)c(F)c(F)c3)cc21 (racemic) [Example 97, (RS)-3-Methyl-1-[6-(3,4,5-trifluorophenyl)pyrazolo[4,3-b]pyridin-1-yl]butan-2-ol]	591
O=C1O[C@@H](Cn2ncc3ncc(-c4ccc(F)c(C(F)F)c4)cc32)CN1C1CC1 [Example 136, (R)-3-Cyclopropyl-5-[[6-[3-(difluoromethyl)-4-fluoro-phenyl]pyrazolo[4,3-b]pyridin-1-yl]methyl]oxazolidin-2-one]	997
CC(C)C(Cn1ncc2ncc(-c3cccc(C(F)(F)F)c3)cc21)=NO (mixture of isomers) [Example 6, (E/Z)-3-Methyl-1-[6-[3-(trifluoromethyl)phenyl]pyrazolo[4,3-b]pyridin-1-yl]butan-2-one oxime]	2480
CCC(=O)Cn1ncc2ncc(-c3ccc(F)c(C(F)(F)F)c3)cc21 [Example 39, 1-[6-[4-Fluoro-3-(trifluoromethyl)phenyl]pyrazolo[4,3-b]pyridin-1-yl]butan-2-one]	75
CCC(O)Cn1ncc2ncc(-c3ccc(F)c(OC(F)F)c3)cc21 (racemic) [Example 92, (RS)-1-[6-[3-(Difluoromethoxy)-4-fluoro-phenyl]pyrazolo[4,3-b]pyridin-1-yl]butan-2-ol]	282

The remaining lines, values ahead:

IC50 [nM]	SMILES
8	Cc1cccc(-c2cnc3cnn(CC(=O)C4CC4)c3c2)c1 [Example 60, 1-Cyclopropyl-2-[6-(m-tolyl)pyrazolo[4,3-b]pyridin-1-yl]ethanone]
13	O=C(Cn1ncc2ncc(-c3ccc(F)cc3)cc21)C1CC1 [Example 59, 1-Cyclopropyl-2-[6-(4-fluorophenyl)pyrazolo[4,3-b]pyridin-1-yl]ethanone]
21	CCC(=O)Cn1ncc2ncc(-c3ccc(Cl)c(OC(F)F)c3)cc21 [Example 41, 1-[6-[4-Chloro-3-(difluoromethoxy)phenyl]pyrazolo[4,3-b]pyridin-1-yl]butan-2-one]
45	Fc1ccc(-c2cnc3cnn(CC(F)(F)C4CC4)c3c2)cc1C(F)F [Example 108, 1-(2-Cyclopropyl-2,2-difluoro-ethyl)-6-[3-(difluoromethyl)-4-fluoro-phenyl]pyrazolo[4,3-b]pyridine]
823	CC[S+]([O-])Cn1ncc2ncc(-c3cccc(F)c3)cc21 (racemic) [Example 80, (RS)-1-(Ethylsulfinylmethyl)-6-(3-fluorophenyl)pyrazolo[4,3-b]pyridine]
478	CN1C[C@@H](Cn2ncc3ncc(-c4ccc(F)c(C(F)F)c4)cc32)OC1=O [Example 130, (5S)-5-[[6-[3-(Difluoromethyl)-4-fluoro-phenyl]pyrazolo[4,3-b]pyridin-1-yl]methyl]-3-methyl-oxazolidin-2-one]
113	Fc1ccc(-c2cnc3cnn(CC4CCCO4)c3c2)cc1OC(F)F (racemic) [Example 112, (RS)-6-[3-(Difluoromethoxy)-4-fluoro-phenyl]-1-(tetrahydrofuran-2-ylmethyl)pyrazolo[4,3-b]pyridine]
90	O=C(Cn1ncc2ncc(-c3ccc(F)c(C(F)F)c3)cc21)c1cccnc1 [Example 16, 2-(6-(3-(Difluoromethyl)-4-fluorophenyl)-1H-pyrazolo[4,3-b]pyridin-1-yl)-1-(pyridin-3-yl)ethan-1-one]
128	CC[S+]([O-])Cn1ncc2ncc(-c3cccc(C(F)(F)F)c3)cc21 (racemic) [Example 81, (RS)-1-(Ethylsulfinylmethyl)-6-[3-(trifluoromethyl)phenyl]pyrazolo[4,3-b]pyridine]
16	O=C(Cn1ncc2ncc(-c3cccc(Cl)c3F)cc21)C1CC1 [Example 67, 2-[6-(3-Chloro-2-fluoro-phenyl)pyrazolo[4,3-b]pyridin-1-yl]-1-cyclopropyl-ethanone]
36	O=C(Cn1ncc2ncc(-c3ccc(F)c(C(F)(F)F)c3)cc21)C1CC1 [Example 74, 1-Cyclopropyl-2-[6-[4-fluoro-3-(trifluoromethyl)phenyl]pyrazolo[4,3-b]pyridin-1-yl]ethanone]
15	CC(=O)Cn1ncc2ncc(-c3ccc(F)c(C)c3)cc21 [Example 24, 1-[6-(4-Fluoro-3-methyl-phenyl)pyrazolo[4,3-b]pyridin-1-yl]propan-2-one]
14	CC(=O)Cn1ncc2ncc(-c3ccc(F)c(C(F)F)c3)cc21 [Example 23, 1-[6-[3-(Difluoromethyl)-4-fluoro-phenyl]pyrazolo[4,3-b]pyridin-1-yl]propan-2-one]
